The target in assay [1] is T1, Vitamin D3 receptor (Homo sapiens) (UniProt P11473).
T1 sequence (whole entry): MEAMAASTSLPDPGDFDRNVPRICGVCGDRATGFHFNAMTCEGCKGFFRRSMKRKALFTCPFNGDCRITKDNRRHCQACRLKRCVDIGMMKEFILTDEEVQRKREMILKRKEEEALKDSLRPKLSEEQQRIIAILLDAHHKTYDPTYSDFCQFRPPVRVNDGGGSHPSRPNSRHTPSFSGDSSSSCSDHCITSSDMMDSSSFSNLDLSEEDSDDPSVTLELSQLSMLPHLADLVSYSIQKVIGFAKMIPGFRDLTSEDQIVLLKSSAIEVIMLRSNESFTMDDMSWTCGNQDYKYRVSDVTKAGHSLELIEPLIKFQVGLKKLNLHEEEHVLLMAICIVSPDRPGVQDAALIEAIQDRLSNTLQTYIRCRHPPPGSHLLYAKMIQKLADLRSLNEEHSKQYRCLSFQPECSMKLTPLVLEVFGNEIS
Description: Relative affinity compared to Calcitriol in displacement of [3H]1H]1-alpha,25(OH)2D3 from vitamin D receptor (VDR) in MG-63 cells. The assay is classed as functional, cell-based.

Another assay relates to Mus musculus. Description: In vivo calcemic effect was tested in vitamin D replete normal […] mice by measuring calcium levels in serum. The assay is classed as functional. Set-up: reference not given here.
Assay [2] concerns the target T1, Vitamin D3 receptor (Homo sapiens). Description: Relative affinity compared to Calcitriol in displacement of [3H]1H]1-alpha,25(OH)2D3 from Vitamin D3 receptor in HL-60 cells. The assay is classed as functional, cell-based. On the technique in general: In a radioligand displacement assay an active substance lowers the binding of a labelled ligand.
The target is the same in assay [3]. Description: Relative affinity compared to Calcitriol in displacement of [3H]1H]1-alpha,25(OH)2D3 from vitamin D3 receptor in […] cells. In kind it is cell-based.
The target of assay [4] is T2, Vitamin D3 receptor (Sus scrofa) (UniProt A3RGC1).
T2 sequence (whole entry): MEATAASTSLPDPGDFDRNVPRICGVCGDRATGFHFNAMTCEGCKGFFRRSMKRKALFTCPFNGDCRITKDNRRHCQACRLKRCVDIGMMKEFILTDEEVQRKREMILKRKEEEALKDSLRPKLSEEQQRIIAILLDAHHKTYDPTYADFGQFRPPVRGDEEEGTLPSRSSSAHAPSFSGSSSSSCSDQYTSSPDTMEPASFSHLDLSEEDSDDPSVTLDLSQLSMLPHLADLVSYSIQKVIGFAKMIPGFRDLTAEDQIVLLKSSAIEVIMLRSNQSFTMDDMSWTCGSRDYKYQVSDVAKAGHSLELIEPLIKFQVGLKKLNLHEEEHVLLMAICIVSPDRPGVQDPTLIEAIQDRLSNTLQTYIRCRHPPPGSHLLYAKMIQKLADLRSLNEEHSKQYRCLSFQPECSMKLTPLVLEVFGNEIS
Description: Affinity for pig intestinal mucosa Vitamin D3 receptor (VDR). In kind it is tissue-based.

The subject of assay [5] is keratinocytes (Homo sapiens). Kind of assay: Antiproliferative activity relative to Calcitriol in Keratinocyte cell lines.

Structures are written as SMILES.

In the case of `C=C1/C(=C/C=C/[C@@H]2CC[C@H]([C@@H](C)CC#CC(C)(C)O)C2(C)C)C[C@@H](O)C[C@@H]1O`, the Activity in assay [1] is 10%; in the assay with Mus musculus it was 0.5; in assay [2], 100%; in assay [3], 150%; in assay [4], 40; in assay [5] it was 200%.

On to `C=C1/C(=C/C=C/[C@@H]2CC[C@H]([C@H](C)CCCC(C)(C)O)[C@@]2(C)CCC)C[C@@H](O)C[C@@H]1O`, for which the Activity in assay [1] was 8%; with Mus musculus, 1; in assay [2], 10%; in assay [3] it was 1%; in assay [4] it was 80; in assay [5], 85%.

Take `C=C1/C(=C/C=C/[C@@H]2CC[C@H]([C@H](C)CC#CC(C)(C)O)C2(C)C)C[C@@H](O)C[C@@H]1O`: the Activity in the assay with Mus musculus was 0.25; in assay [2], 100%; in assay [3], 200%; in assay [4], 40.

Turning to `C=C1/C(=C/C=C/[C@@H]2CC[C@H]([C@H](C)CCCC(C)(C)O)C2(C)C)C[C@@H](O)C[C@@H]1O`, the Activity was 30% in assay [1]; 0.3 in the assay with Mus musculus; 85% in assay [2]; 85% in assay [3]; 80 in assay [4]; 90% in assay [5].

In the case of `C=C1/C(=C/C=C/[C@@H]2CC[C@H]([C@@H](C)CCCC(C)(C)O)C2(C)C)C[C@@H](O)C[C@@H]1O`, the Activity in assay [1] was 10%; with Mus musculus, 3; in assay [2], 100%; in assay [3], 85%; in assay [4], 70; in assay [5] it was 100%.
